According to US7608640B2, “Glycine betaine and its use” (priority 2001, dated 2009):

What was measured:
[1] = test system: arterial thrombosis induced by laser beam in the mesenteric microcirculation of the rat; assay: Laser-induced thrombosis in the mesenteric microcirculation; type: in vivo
Source text: A/Principle of Laser-induced Thrombosis (Seiffge D. et al., 1989; Weichter W. et al., 1983).
In this model, lesion of the vascular wall is induced by a laser beam. This beam causes a limited lesion of the vascular endothelium (only 1 to 2 cells are destroyed). This laying bare of the sub-endothelium, which is a thrombogenetic surface, results in the adherence of platelets via […]. This adherence of platelets is followed by the activation thereof. They form pseudopods and secrete the content of their granules. This activation results in the appearance of glycoproteins IIb-IIIa which are necessary for the aggregation of the platelets between them. This lesion is induced in the mesenteric microcirculation of the rat. It is immediately followed by the formation of a thrombus (in a few seconds). This thrombus, which rapidly enlarges under the influence of the flow of blood, embolises before being formed again.
By this manes, the assessment of the effect of glycine betaine was conducted pharmacologically in conjunction with the study of two active molecules used as a reference; namely acetylsalicylic acid and heparin (of low molecular weight). The assessment also involved the activity of glycine betaine in relation to the prothrombotic effects induced by contrasting products.
Male Wistar rats were used for these tests. They weighed between 200 and 250 grams. After an 8-day stabilisation period, the rats were subjected to fasting for 12 hours. They were then anaesthetised, glycine betaine was administered subcutaneously, and the mesentery (laser) or vena cava (stasis) was opened at the end of the experiments.

[2] = test system: coagulation factors; assay: Biological balance (Quick time, ACT, fibrinogen, α2AP, AT III); type: in vivo, rat
[3] = test system: bleeding time in rats; assay: Induced haemorrhagic (bleeding) time, tail cut; type: in vivo, rat
Experimental: Induced Haemorrahgic Time IHT
(E. Dejana. Bleeding time in rats. Thrombosis. Rech. 1982) Blood samples are made before the test. The tail of anaesthetised rat, is dipped for 5 minutes in a water bath at 37° C. so as to provoke a dilatation of the peripheral vessels which are removed and cut at the end, the chronometer being started. The IHT is defined as being the time period comprised between the cutting of end tail and the end of the haemorrhage or bleeding. The end of haemorrhage is defined as the time where the last drop of blood is removed from the tail and no other drop is seen for 180 seconds. […]

[4] = test system: platelet aggregation; assay: Whole blood platelet aggregation ex vivo (aggregometer); type: in vivo, rat; details: after laser firings
Experimental: The aggregation is made in accordance to the methods of Cardinal & Flower. Pharmacol. Method. 1980, and to American Journal of Clinical Pathology, 1989; 92: 676-679, Sureney. J D. Whole Blood aggregometry. After a keeping period of 8 days, the rats are subjected to a fasting for 12 hours. […] The rats are then anaesthetised with sodium Thiopental administered at a dose of 200 mg/Kg and the blood samples are taken by intracardiac puncture on a trisodium citrate solution (1 volume of solution at 3.8% citrate for 9 volumes of blood).

[5] = test system: blood cells; assay: Blood cell counts; type: in vivo, rat
[6] = rat, after laser firings, glycine betaine 5 mg/kg, acetylsalicylic acid 100 mg/kg, heparin 2 mg/kg
[7] = rat, glycine betaine 5 mg/kg, acetylsalicylic acid 100 mg/kg, heparin 2 mg/kg
[8] = after laser firings and administration of contrasting products, alone or with glycine betaine 5 mg/kg
[9] = contrasting products alone or with glycine betaine 5 mg/kg

## CC(=O)Oc1ccccc1C(=O)O [Acetylsalicylic acid]
[1]; [6]
  Duration of embolisation: 0.33 ± 0.58 min
  Number of emboles or embolies: 1 ± 1
[2]; [7]
  ACT (Activated cephaline time): 27.26 ± 1.1 s
  AT III (Antithrombin III): 85.33 ± 3.51%
  Fibrinogen: 2.19 ± 0.33 g/L
  QT (Quick time): 18.33 ± 2.08 s
  α2AP (Alpha,2-antiplasmin): 29.36 ± 0.92%
[3]; [7]
  Bleeding time: 276.67 ± 20.82 s
[4]; [7]
  Amplitude (platelet aggregation): 2.33 ± 2.08 ohms
  Velocity (platelet aggregation): 2 ± 1 ohms/min
[5]; [7]
  Number of platelets: 855.33 ± 63.17 10^9
  Number of red corpuscles: 6.15 ± 0.31 10^12
  Number of white corpuscles: 4.33 ± 1.00 10^9

## C[C@H](O)C(=O)Nc1c(I)c(C(=O)NC(CO)CO)c(I)c(C(=O)NC(CO)CO)c1I [Iopamidol ®, Iopamidol]
[1]; [8]
  Duration of embolisation: 6.33 ± 0.52 min
  Number of emboles: 11.67 ± 0.50
[2]; [9]
  ACT (Activated cephaline time): 41.33 ± 0.8 s
  AT III (Antithrombin III): 70.6 ± 1.51%
  Fibrinogen: 1.5 ± 0.8 g/L
  QT (Quick time): 28.1 ± 0.75 s
  α2AP (Alpha,2-antiplasmin): 25.23 ± 0.95%
[3]; [9]
  IBD (induced bleeding time): 128 ± 7.64 s
[4]; [9]
  Amplitude (platelet aggregation): 15 ± 2.64 ohm
  Velocity (platelet aggregation): 12.33 ± 0.50 ohm/min
[5]; [9]
  Number of platelets: 585.67 ± 23.54 10^9
